According to PMC9101188, “Human α-Defensin-6 Neutralizes Clostridioides difficile Toxins TcdA and TcdB by Direct Binding” (International Journal of Molecular Sciences, 2022):

How the values were obtained:
CaCo-2 monolayer [1] = type: cell-based, human
Vero cells [2] = type: cell-based, African green monkey
TcdB [3] = details: TcdB 50 ng, α-def-6 6 µM, PBS, 0.5 h, 37 °C (n = 3)
Procedure: (C) TcdB (50 ng) was incubated with or without α-def-6 (6 µM) in PBS for 0.5 h at 37 °C. Samples were centrifuged to segregate aggregates and divided into a supernatant (S) and pellet (P) fraction. Fractions were subjected to SDS-PAGE followed by Western blotting. TcdB was detected.
The TcdB stock was centrifuged for 20 min at 14,000 rpm and 4 °C to remove any preformed aggregates. TcdB (50 ng) was incubated in the absence or presence of α-def-6 (6 µM) for 30 min at 37 °C in a final volume of 35 µL PBS. The samples were centrifuged as before to segregate possible aggregates and subsequently separated into a supernatant (30 µL) and pellet fraction (5 µL). The pellet fraction was resuspended with 25 µL PBS to a final volume of 30 µL. Each fraction (30 µL) was then subjected to SDS-PAGE (8% polyacrylamide gel) and Western blotting. TcdB was detected using an anti-TcdB-antibody (1:1000, #ab270452, Abcam, Cambridge, UK) followed by an HRP-conjugated mouse anti-rabbit antibody (1:2500; #sc-2357; Santa Cruz Biotechnology, Dallas, TX, USA).

Rac1 [4] = type: cell-based, African green monkey
CaCo-2 monolayer [5] = tested on: CaCo-2 monolayer
Rac1 [6] = type: cell-based, African green monkey; remark: listed apart in the source
Vero cells [7] = tested on: Vero cells
CaCo-2 monolayer [8] = type: cell-based, human; remark: listed apart in the source
Rac1 [9] = type: cell-based, African green monkey; remark: listed apart in the source
Vero cells [10] = type: cell-based, African green monkey; remark: listed apart in the source
SARS-CoV-2 = details: ref [55]; cited from earlier work
Source text: There is increasing evidence that α-def-6 represents an outlier among the α-defensins, which is also noticeable in the context of bacterial toxins. Anti-toxin activities have already been described for several α-defensins.

TcdB glucosyltransferase [11] = assay: UDP-Glo glucosyltransferase assay; type: biochemical, C. difficile VPI 10463; details: TcdB 200 pM, recombinant Rac1 5 µM, UDP-glucose 100 µM, 1 h, 37 °C, pH 7.5, luminescence (n ≥ 3)
Procedure: (§1) The flow rate was 25 µL/min. […] A representative gel is shown (n = 2). […] GAPDH served as the loading control. A representative Western blot is shown.
UDP-Glo™ Glucosyltransferase assay with UDP-Glucose (Promega Corporation, Madison, WI, USA) was performed according to the manufacturer’s protocol. Briefly, TcdB (200 pM) was incubated in glucosylation buffer (50 mM HEPES, 100 mM KCl, 2 mM MgCl2, 1 mM MnCl2, 100 mg/L BSA, pH 7.5) with various concentrations of the respective inhibitors in a final volume of 40 µL. 5 µM recombinant Rac1 was included in the samples as a substrate. […] Castanospermine (10 mM, Santa Cruz Biotechnology, Dallas, TX, USA) served as control for inhibition of glucosyltransferase activity of TcdB. To stop the reaction, three times 10 µL of each sample were transferred to a white half area 96 well microplate (Greiner Bio-One International GmbH, Kremsmünster, Austria) combined with 10 µL of UDP Detection Reagent and mixed at 1000 rpm for 30 s on a plate shaker (Titramax 1000, Heidolph Instruments GmbH & Co. KG, Schwabach, Germany). Luminescence was recorded after 15–60 min via a Tecan infinite M1000 Pro plate reader (Tecan, Männdorf, Switzerland) with an integration time of 750 ms.

TcdB autoprotease domain = assay: In vitro autoprocessing of TcdB (InsP6-induced autoprotease activity); type: biochemical, C. difficile VPI 10463; details: TcdB 2 µg, InsP6 1 mM; α-def-6 3 µM, 9 µM; 1 h, 37 °C, pH 7.4; SDS-PAGE, Coomassie (n = 2)
Procedure: as §1
The effects of α-def-6 on TcdB autoprocessing by its intrinsic cysteine protease activity were analyzed. […] Inositol hexakisphosphate (1 mM, Santa Cruz Biotechnology, Dallas, TX, USA) was added to the samples to induce autoprocessing. N-Ethylmaleimide (1 mM, Sigma Aldrich by Merck KGaA, Darmstadt, Germany) served as positive control for the inhibition of TcdB-autoprocessing. The reactions were stopped by addition of a Laemmli buffer and heat denaturation (95 °C). For the analysis, the samples were electrophoresed on 8% SDS polyacrylamide gels, and proteins were visualized by Coomassie staining.

TcdB glucosyltransferase [12] = assay: In vitro glucosylation of Rac1 by TcdB (CaCo-2 lysate, Western blot); type: biochemical, C. difficile VPI 10463; details: CaCo-2 cell lysate 40 µg, TcdB 50 ng; α-def-6 up to 12 µM; 2 h, 37 °C, pH 7.5; Western blot (n = 4)
Procedure: as §1
To evaluate the potential effects of α-def-6 on TcdB glucosyltransferase activity, 40 µg of CaCo-2 cell lysate were used as a source of Rac1 and incubated with TcdB (50 ng) in glucosylation buffer (50 mM HEPES, 100 mM KCl, 2 mM MgCl2, 1 mM MnCl2, 100 mg/L BSA, pH 7.5) in a final volume of 20 µL. Two concentrations of α-def-6 (6 µM, 12 µM) were tested. Reactions were allowed to proceed for 2 h at 37 °C and stopped with the addition of a Laemmli buffer and heating for 10 min at 95 °C. The samples were loaded onto a 12.5% polyacrylamide gel and separated via SDS-PAGE followed by Western blotting. Unspecific binding sites were blocked with 5% (w/v) skim milk powder diluted in PBS with 0.1% (v/v) Tween®20 (PBS-T, pH 7.4) for 1 h at RT. The glucosylation status of Rac1 was assessed by probing with a mouse anti-Rac1-antibody (1:500, #610651, BD Biosciences, Franklin Lakes, NJ, USA) specifically directed against non-glucosylated Rac1 overnight at 4 °C. After washing, the membrane was incubated with a secondary horseradish-peroxidase (HRP)-conjugated goat-anti-mouse antibody (1:2500, #31430, Invitrogen by Thermo Fisher Scientific, Waltham, MA, USA) for 1 h at RT. Signals were detected using the ECL-system. […]

TcdB [13] = details: SPR, 2400 RUs biotinylated TcdB on streptavidin chip; α-def-6 0.1 to 6 µM; 10 mM HEPES, 150 mM NaCl, 50 µM EDTA, 0.005% Tween 20, pH 7.0; 25 µL/min, 25 °C; 4 min injection
Procedure: (A) 2400 RUs of biotinylated TcdB were immobilized via streptavidin-biotin binding onto a streptavidin sensor chip, and α-def-6 (concentrations as indicated) was applied to the chip for 4 min followed by a dissociation phase with a flow of running buffer. A solution of 6 µM of α-def-6 was injected twice to assess reproducibility, and β-def-1 (6 µM) served as a control. The flow rate was 25 µL/min.
TcdB was biotinylated via EZ-Link^TM Sulfo-NHS-Biotin (Thermo Fisher Scientific, Waltham, MA, USA) according to the manufacturer’s protocol. Briefly, TcdB was incubated with Sulfo-NHS-Biotin for 30 min at room temperature (RT). To remove the excess non-reacted biotin, TcdB was rebuffered with a Zeba^TM Spin Desalting Column (Thermo Fisher Scientific, Waltham, MA, USA). The successful biotinylation was verified via Western blotting and detection with peroxidase-conjugated streptavidin (1:2500, F. Hoffmann-La Roche AG, Basel, Switzerland).
The binding of α-def-6 to biotinylated TcdB was analyzed via surface plasmon resonance spectroscopy (SPR) with a Reichert SPR7500DC SPR spectrometer (Reichert Technologies, Buffalo, NY, USA). All analytes were dialyzed in running buffer (10 mM HEPES, 150 mM NaCl, 50 µM EDTA, 0.005% (v/v) Tween®20, pH 7.0) beforehand. Experiments were performed with a flow rate of 25 µL/min at 25 °C. […]

CC[C@H](C)[C@@H]1NC(=O)CNC(=O)[C@H](CCSC)NC(=O)[C@H](C(C)C)NC(=O)[C@H]([C@@H](C)O)NC(=O)[C@@H]2CSSC[C@@H]3NC(=O)[C@H](Cc4c[nH]cn4)NC(=O)[C@@H](NC(=O)[C@@H](NC(=O)[C@H](Cc4ccccc4)NC(=O)[C@H](C)N)[C@@H](C)O)CSSC[C@@H](C(=O)N[C@@H](CC(C)C)C(=O)O)NC(=O)[C@H](CSSC[C@H](NC(=O)[C@H](CO)NC(=O)[C@H](CCCNC(=N)N)NC(=O)[C@H](CCCNC(=N)N)NC3=O)C(=O)N[C@@H](Cc3ccc(O)cc3)C(=O)N[C@@H](CO)C(=O)N[C@@H]([C@@H](C)O)C(=O)N[C@@H](CCC(=O)O)C(=O)N[C@@H](Cc3ccc(O)cc3)C(=O)N[C@@H](CO)C(=O)N[C@@H](Cc3ccc(O)cc3)C(=O)NCC(=O)N[C@@H]([C@@H](C)O)C(=O)N2)NC(=O)[C@H](Cc2ccccc2)NC(=O)[C@H](CCCNC(=N)N)NC(=O)[C@H](Cc2c[nH]cn2)NC(=O)[C@H](CC(N)=O)NC1=O [α-def-6]
TEER, TcdA + TcdB (CaCo-2 monolayer [1]): clear delay in TEER-reduction
inhibition of toxin effects on cells, TcdA + TcdB (Vero cells [2]): clear inhibition
protection of cells against TcdA + TcdB (Vero cells [2]): clear protection
shift of TcdB to pellet fraction (TcdB [3]): shift of TcdB from the supernatant to the pellet fraction
Rac1 modification by TcdA + TcdB (Rac1 [4]): diminished the toxin-mediated Rac1-modification
TEER, TcdB (CaCo-2 monolayer [5]): clear delay in TEER-reduction
cytotoxic effects on the monolayer, TcdB (CaCo-2 monolayer [5]): time-dependent inhibition of the cytotoxic effects on the monolayer
glucosylation of Rac1 by TcdB (Rac1 [6]): clearly less Rac1 was glucosylated
inhibition of toxin effects on cells, TcdB (Vero cells [7]): clear inhibition
protection of cells against TcdB (Vero cells [7]): almost complete protection
reduction of the amount of rounded cells (Vero cells [7]): clear concentration-dependent reduction of the amount of rounded cells
IC50 (Vero cells [7]; 5 h): ~500 nM
TEER, TcdA (CaCo-2 monolayer [8]): clear delay in TEER-reduction
glucosylation of Rac1 in intact cells (Rac1 [9]): less Rac1 was glucosylated
inhibition of toxin effects on cells, TcdA (Vero cells [10]): clear inhibition
protection of cells against TcdA (Vero cells [10]): clear protection
prevention of infection of cells with SARS-CoV-2 (SARS-CoV-2): cannot prevent the infection of cells with SARS-CoV-2
inhibition of glucosyltransferase activity of TcdB (TcdB glucosyltransferase [11]): not able to inhibit glucosyltransferase activity
amount of rounded CaCo-2 cells, TcdB (CaCo-2 cells): reduced amount of rounded CaCo-2 cells was visible for at least 6 h
release of the glucosyltransferase domain by the autoprotease domain (effect of substance) (TcdB autoprotease domain): not affected
inhibition of enzymatic activity of the glucosyltransferase domain of TcdB (TcdB glucosyltransferase [12]): almost no inhibition
interaction with immobilized TcdB (TcdB [13]): direct, concentration-dependent interaction
